Measurements: article PMC9068772, “Discovery of first-in-class nanomolar inhibitors of heptosyltransferase I reveals a new aminoglycoside target and potential alternative mechanism of action” (Scientific Reports, 2022)
“And” between values parts separate entries of the source, which are not always exact repeats. Identical values can stand only once.

Tests used:
[1] = molecular target: T1, Heptosyltransferase I (HepI) WT (Escherichia coli, UniProt P24173); test: HepI inhibition, ADP/NADH coupled assay (wild type); assay type: biochemical, E. coli K12; conditions: for kcat: HepI WT in presence of inhibitor; for Ki: 10 μM ODLA, inhibitor varied
T1 construct: made in house; host or cells: E. coli One Shot BL-21-AI
Procedure: As previously reported[11],[14],[15], an ADP/NADH coupled assay was used to monitor HepI activity by monitoring the absorbance change at 340 nm at 37 °C on a Cary Bio 100 UV–Vis Spectrometer. Under normal conditions, the assay buffer was composed of 50 mM HEPES, 50 mM KCl, 10 mM MgCl2, pH 7.5. The coupled enzyme reaction additionally contained 100 μM phosphoenolpyruvate, 100 μM NADH, 100 μM dithiothreitol (DTT) and 0.05 U/μL of both pyruvate kinase and lactate dehydrogenase. 100 μM ADPH was used when ODLA concentration was varied and 100 μM ODLA was used when ADPH was varied. Once a stable baseline was established (~ 5 min), the reaction was initiated by addition of HepI to a final concentration of 50 nM or 100 nM (for high and lower substrate concentrations respectively) and all reported reaction rates are after background subtraction. When running 12 samples at once, plastic cuvette stirs and a repeat pipettor was used to inject 200 μL enzyme. Inhibition of HepI was monitored using the same ADP/NADH coupled assay, all conditions of the assay were the same as previously described unless otherwise stated. Ki values for each of the compounds were determined by varying compound final concentration from 100 μm to 10 nm, and a final concentration of 10 μM ODLA. Competition assays against ADPH were done with excess ODLA (100 μM) and varying ADPH from 2–0.25 μM. Competition assays against ODLA were done with excess ADPH (100 μM) and varying ODLA from 2–0.25 μM. Reactions were started with addition of enzyme and inhibitor was varied from 30–0.01 μM. Kinetics were fit to Lineweaver-Burke (Eq. 1), competitive (Eq. 2), non-competitive (Eq. 3), mixed (Eq. 4), Dixon (Eq. 5), or Cornish-Bowden (Eq. 6) models. All fitting and plotting was done through MATLAB R2018A.1 1/V1/[S]=KM/Vmax[S]+1/Vmax 2 V[S]=Vmax[S]/KM1+[I]/Ki+[S] 3 V[S]=Vmax[S]/1+([I]/Ki)/KM+[S] 4 V[S]=Vmax[S]/KM(1+[I]/Ki)+[S](1+[I]/αKi) 5 1/V[I]=KM1+I/Ki+[S]1+I/αKi/Vmax[S] 6 [S]/V[I]=KM1+I/Ki+[S]1+I/αKi/Vmax

HepI = molecular target: T2, HepI (Escherichia coli, UniProt P24173); test: Circular dichroism thermal melt of HepI; assay type: binding, E. coli K12; conditions: CD melt, HepI plus ligand alone
T2 construct: made in house; host or cells: E. coli One Shot BL-21-AI
Procedure: Circular dichroism melt experiments were performed in a Jasco J-810 spectropolarimeter in Starna 21-Q-2 cells (minimum volume 400 µL) sealed with Teflon tape to prevent evaporation. Parameters include 3 accumulations of data collected between 195–275 nm as a function of temperature (10–95 °C with 5° increments) at a ramp rate of 2°/min and a scanning rate of 50 nm/min. Samples were prepared by diluting a mixture of 5 μM HepI and some combination of 250 μM substrate/product and/or 100 μM inhibitor in a buffer of 10 mM Tris–HCl and 100 mM KCl (pH = 7.5). CD data was analyzed via in house script written in MATLAB R2018A that average a set of triplicate data, normalizes to a percent unfolded (assuming the protein is fully folded at 5 °C) at 222 nm as a function of temperature and fits to a sigmoid curve to determine the melt temperature (TM).

T2 sequence (P24173 whole entry): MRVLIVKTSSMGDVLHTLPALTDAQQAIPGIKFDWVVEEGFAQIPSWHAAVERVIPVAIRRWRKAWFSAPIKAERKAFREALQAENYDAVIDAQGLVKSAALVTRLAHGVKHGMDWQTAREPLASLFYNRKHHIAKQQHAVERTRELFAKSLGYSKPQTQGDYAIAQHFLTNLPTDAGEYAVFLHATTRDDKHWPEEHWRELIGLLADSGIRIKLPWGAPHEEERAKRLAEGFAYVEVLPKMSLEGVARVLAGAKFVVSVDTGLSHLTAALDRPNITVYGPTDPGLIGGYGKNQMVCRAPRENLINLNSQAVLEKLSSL
T1 sequence (P24173 whole entry): as above

Compound | kcat [1] | Ki ([1]; HepI WT) | Extent of unfolding of HepI with ligand (HepI) | Melting temperature (Tm) of HepI with ligand (HepI) | Type of inhibition with ODLA ([1]; HepI WT, excess ADPH, ODLA varied, Lineweaver–Burk, Dixon, Cornish-Bowden)
NCC[C@H](O)C(=O)N[C@@H]1C[C@H](N)[C@@H](O[C@H]2O[C@H](CN)[C@@H](O)[C@H](O)[C@H]2O)[C@H](O)[C@H]1O[C@H]1O[C@H](CO)[C@@H](O)[C@H](N)[C@H]1O [Amikacin] | 0.138 ± 0.001 s⁻¹ | 4.3 µM and 4.26 µM |  |  | 
Nc1ncnc2c1ncn2[C@@H]1O[C@H](COP(=O)(O)OP(=O)(O)O[C@@H]2O[C@H]([C@@H](O)CO)[C@@H](O)[C@H](O)[C@@H]2O)[C@@H](O)[C@H]1O [ADPH, ADP-L-glycero-β-D-manno-heptose] |  |  | ~ 100% | does not induce any changes in the melting temperature | 
NC[C@H]1O[C@H](O[C@H]2[C@H](O)[C@@H](O[C@H]3O[C@H](CO)[C@@H](O)[C@H](N)[C@H]3O)[C@H](N)C[C@@H]2N)[C@H](N)[C@@H](O)[C@@H]1O [Kanamycin B] | 0.149 ± 0.007 s⁻¹ | 0.99 ± 0.119 µM |  |  | Competitive
Nc1ncnc2c1ncn2[C@@H]1O[C@H](COP(=O)(O)OP(=O)(O)O)[C@@H](O)[C@H]1O [ADP, Adenosine disphosphate] |  |  |  | melts similarly to HepI with ADPH | 
